Experimental data as given in paper PMC8994274, “A proteolysis-targeting chimera molecule selectively degrades ENL and inhibits malignant gene expression and tumor growth” (Journal of Hematology & Oncology, 2022).
Entries after “also recorded” stand apart in the source; their conditions may differ.

Assays:
[1] = tested on: blood and solid tumor cells; assay: Antiproliferation assay, ranges given over several cell lines; format: cell-based; settings: AML Kasumi-1, myeloma RPMI-8226 and U266; read-out: EC50 against Kasumi-1, RPMI-8226 and U266 cells (range over cell lines)
Procedure: (§2) Proliferation inhibition assays for suspension blood cancer cells were performed using an XTT assay kit (Biotium), following our previous methods [22]. EC50 values were determined using Prism 5 and from at least three independent experiments.

Molm-13 cells [2] = assay: Annexin V apoptosis assay in Molm-13 cells; format: cell-based; settings: 7 days
Procedure: Treatment of Molm-13 cells with compound 1 for 7 days at 1 and 3 µM caused significant apoptosis of 22.7% and 67.6%, respectively (Fig. 6c and Additional file 1: Fig. S6).
For Annexin V apoptosis assay, 10^5 cells/mL were incubated with increasing concentrations of a compound for 7 days. Apoptosis was determined using the FITC Annexin V Apoptosis Detection Kit I (BD Bioscience) using the manufacturer’s protocol. For other FACS assays, cells were labeled with fluorochrome-conjugated monoclonal antibodies against human CD14 and CD11b (BD Biosciences) according to the manufacturer’s recommendation. Cells were analyzed using a FACS Calibur (BD Biosciences/Applied Biosystems), and data were processed using the program Flowjo (version7.6.5).

[3] = In vivo toxicity in C57BL/6 mice; settings: 30 mg/kg/day for 13 days
Procedure: In vivo antitumor activity of compound 1 was evaluated in a commonly used mouse model of Molm-13 leukemia. First, in vivo toxicity was assessed in C57BL/6 mice. […] Next, 10^6 Molm-13 cells were injected subcutaneously into NOD-SCID mice, which developed palpable tumors in ~ 1 week and grew rapidly.

mutant ENL (mENL) = molecular target: T1, mutant ENL (mENL) (Homo sapiens, UniProt Q03111+Q96SW2, INS117NHL); assay: Degradation of mutant and WT ENL in mENL-transfected HEK293T cells (Western blot); format: cell-based
T1 construct: FLAG (DYK); expressed in transfected cells; host or cells: HEK293T
Procedure: Ability of compound 1 to degrade mutant ENL, which has been implicated to cause Wilms tumor, was evaluated. […] A pcDNA3.1(+)-N-DYK plasmid containing a mutant ENL (mENL) with a short insertion of -NHL- between L117 and R118 [38] was transfected into 5 × 10^5 HEK293T cells. Upon incubation for 24 h, expression of the FLAG-tagged mENL can be dose-dependently detected with as low as 0.04 μg of the plasmid (Fig. 7a). Using a FLAG antibody appeared to be less quantitative because of a higher background staining for the control samples (Fig. 7a–c, left panels).
With 0.1 μg of the plasmid, compound 1 can efficiently degrade both WT and mutant ENL proteins with Dmax of ~ 95% at ~ 500 nM upon 24 h incubation (Fig. 7b). […] It was ineffective with 1 μg of the plasmid (not shown), presumably because the rate of mENL synthesis in cells was higher than that of 1-mediated degradation.
(§1) 5 × 10^5 HEK293T cells were transfected with mENL containing pcDNA3.1(+)-N-DYK plasmid using jetPRIME (Polyplus Transfection) following the manufacturer's protocol. Upon transfection for 4 h, the media were carefully removed and the cells incubated with fresh media containing the specified concentrations of compound 1 for 24 h before further analysis (using Western blot or qPCR as described above).

HoxA11 and HoxA13 = assay: qPCR expression of HoxA11 and HoxA13 in mENL-transfected HEK293T cells; format: cell-based; settings: 0.04 μg of the plasmid, 24 h incubation
Procedure: Next, we investigated how mENL degradation affect expression of HoxA11 and HoxA13 in this cell model.
as §1

MV4;11 cells = assay: Antiproliferation assay (XTT), MV4;11; settings: Homo sapiens, MV4-11, 168 h, read-out: EC50 against proliferation of MV4;11 cells
Procedure: as §2

Molm-13 cells [4] = assay: Antiproliferation assay (XTT), Molm-13
Procedure: as §2

ENL [5] = molecular target: T2, ENL (Homo sapiens, UniProt Q03111); assay: ENL in nucleus and cytoplasm of MV4;11 cells (Western blot); format: cell-based; design: endogenous in cells; host or cells: MV4;11; settings: 4 days
T2 sequence (Q03111 1-559): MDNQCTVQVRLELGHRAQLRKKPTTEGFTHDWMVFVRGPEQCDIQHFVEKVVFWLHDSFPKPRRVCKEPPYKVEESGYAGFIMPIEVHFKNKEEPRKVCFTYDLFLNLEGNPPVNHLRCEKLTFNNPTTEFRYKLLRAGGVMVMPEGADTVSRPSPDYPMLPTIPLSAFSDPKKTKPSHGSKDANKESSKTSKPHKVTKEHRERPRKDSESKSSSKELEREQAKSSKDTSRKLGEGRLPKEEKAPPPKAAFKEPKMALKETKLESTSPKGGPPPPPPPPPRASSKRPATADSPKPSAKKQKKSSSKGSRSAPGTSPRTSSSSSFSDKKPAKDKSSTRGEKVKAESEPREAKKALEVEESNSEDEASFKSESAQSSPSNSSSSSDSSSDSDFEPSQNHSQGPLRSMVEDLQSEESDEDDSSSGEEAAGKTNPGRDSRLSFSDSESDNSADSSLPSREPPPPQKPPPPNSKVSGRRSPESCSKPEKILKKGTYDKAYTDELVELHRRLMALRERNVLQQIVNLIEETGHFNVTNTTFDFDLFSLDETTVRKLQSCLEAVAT
Procedure: Upon treatment of MV4;11 cells with these compounds for 4 days, cytoplasmic and nuclear proteins were separated and subjected to SDS-PAGE/Western blot.
3 × 10^6 cells/well were treated with increasing concentrations of a compound for 1 day, and whole proteins were extracted. Equal amounts of proteins were separated on SDS-PAGE and transferred to PVDF membranes. The blots were probed with primary antibodies, followed by anti-rabbit IgG (Thermo Scientific) secondary antibodies.

ENL [6] = molecular target: T2, ENL; assay: ENL degradation in MV4;11 cells (Western blot); format: cell-based; design: endogenous in cells; host or cells: MV4;11; settings: 500 nM
AF9 YEATS = molecular target: T3, AF9 YEATS (Homo sapiens, UniProt P42568); assay: ALPHA assay, inhibition of the AF9 YEATS-H3K27ac interaction
T3 sequence (P42568 1-138 limits assumed): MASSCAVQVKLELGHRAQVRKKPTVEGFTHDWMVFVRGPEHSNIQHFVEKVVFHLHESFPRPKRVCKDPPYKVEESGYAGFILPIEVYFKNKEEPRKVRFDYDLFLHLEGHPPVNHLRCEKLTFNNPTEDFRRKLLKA
From the text: AlphaScreen binding assay was developed using Perkin-Elmer AlphaScreen Histidine (Nickel Chelate) Detection Kit, following a reported protocol [39]. Data were imported into Prism (version 5.0), and IC50 values from 3 independent experiments with standard deviation were obtained by using a standard dose–response curve fitting.

T1 sequence (Q03111 with tags, fused parts or gaps INS117NHL): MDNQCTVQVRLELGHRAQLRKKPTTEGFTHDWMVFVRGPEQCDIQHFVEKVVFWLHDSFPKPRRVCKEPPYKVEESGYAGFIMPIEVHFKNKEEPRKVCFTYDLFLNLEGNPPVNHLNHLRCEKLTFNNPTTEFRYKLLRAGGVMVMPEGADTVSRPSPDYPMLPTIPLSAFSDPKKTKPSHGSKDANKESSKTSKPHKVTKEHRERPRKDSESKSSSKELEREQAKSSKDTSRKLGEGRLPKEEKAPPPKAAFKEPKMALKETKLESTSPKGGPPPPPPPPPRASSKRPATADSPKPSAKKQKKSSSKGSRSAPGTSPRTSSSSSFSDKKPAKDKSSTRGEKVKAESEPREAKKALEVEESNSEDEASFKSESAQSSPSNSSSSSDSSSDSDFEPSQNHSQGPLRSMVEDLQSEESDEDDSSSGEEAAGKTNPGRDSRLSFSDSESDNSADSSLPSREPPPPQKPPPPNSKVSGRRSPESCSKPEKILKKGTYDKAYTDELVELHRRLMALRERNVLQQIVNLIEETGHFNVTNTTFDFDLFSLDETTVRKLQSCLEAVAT
T1 sequence (Q96SW2 whole entry, stated change not applied): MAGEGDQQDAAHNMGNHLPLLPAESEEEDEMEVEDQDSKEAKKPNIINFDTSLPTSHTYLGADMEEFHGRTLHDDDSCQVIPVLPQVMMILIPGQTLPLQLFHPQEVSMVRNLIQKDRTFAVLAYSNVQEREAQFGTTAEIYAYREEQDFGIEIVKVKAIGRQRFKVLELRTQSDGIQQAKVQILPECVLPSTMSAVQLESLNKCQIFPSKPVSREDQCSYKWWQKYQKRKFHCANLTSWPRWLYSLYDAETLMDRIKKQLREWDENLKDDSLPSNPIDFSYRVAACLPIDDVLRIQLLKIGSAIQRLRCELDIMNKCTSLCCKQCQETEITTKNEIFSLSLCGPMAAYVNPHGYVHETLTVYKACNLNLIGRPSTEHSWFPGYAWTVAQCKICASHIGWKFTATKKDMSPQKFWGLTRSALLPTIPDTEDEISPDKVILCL
T1 sequence (Q16531 whole entry partner): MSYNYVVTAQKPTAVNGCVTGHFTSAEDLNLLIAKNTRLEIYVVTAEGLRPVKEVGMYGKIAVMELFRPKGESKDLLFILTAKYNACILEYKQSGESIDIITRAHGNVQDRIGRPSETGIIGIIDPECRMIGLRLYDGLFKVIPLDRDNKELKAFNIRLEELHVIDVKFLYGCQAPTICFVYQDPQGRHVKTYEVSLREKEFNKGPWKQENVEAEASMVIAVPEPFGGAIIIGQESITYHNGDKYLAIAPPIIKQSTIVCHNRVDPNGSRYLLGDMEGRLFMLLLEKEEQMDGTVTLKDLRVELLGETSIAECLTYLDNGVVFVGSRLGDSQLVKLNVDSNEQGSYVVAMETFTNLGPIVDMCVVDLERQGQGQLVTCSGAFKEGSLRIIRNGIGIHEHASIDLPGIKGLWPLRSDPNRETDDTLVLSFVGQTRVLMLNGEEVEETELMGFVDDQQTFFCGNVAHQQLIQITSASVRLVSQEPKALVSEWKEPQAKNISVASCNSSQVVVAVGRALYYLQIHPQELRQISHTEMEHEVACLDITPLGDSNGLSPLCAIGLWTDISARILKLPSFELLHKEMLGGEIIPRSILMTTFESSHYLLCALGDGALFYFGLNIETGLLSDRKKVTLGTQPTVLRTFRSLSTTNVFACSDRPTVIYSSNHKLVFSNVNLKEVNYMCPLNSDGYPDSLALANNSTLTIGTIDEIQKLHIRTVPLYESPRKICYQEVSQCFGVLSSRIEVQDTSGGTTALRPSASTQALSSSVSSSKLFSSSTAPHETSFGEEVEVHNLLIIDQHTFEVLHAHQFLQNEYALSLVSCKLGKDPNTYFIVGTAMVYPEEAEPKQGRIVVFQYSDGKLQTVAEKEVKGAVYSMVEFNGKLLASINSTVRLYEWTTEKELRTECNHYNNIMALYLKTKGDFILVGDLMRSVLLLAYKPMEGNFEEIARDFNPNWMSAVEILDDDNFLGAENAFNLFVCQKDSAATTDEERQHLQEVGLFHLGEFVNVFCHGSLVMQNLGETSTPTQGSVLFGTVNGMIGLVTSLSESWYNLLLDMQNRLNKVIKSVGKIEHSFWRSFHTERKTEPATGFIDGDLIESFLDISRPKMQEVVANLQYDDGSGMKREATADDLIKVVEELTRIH

`C[C@H]1CCCN1Cc1nc2cc(NC(=O)c3ccc4c(cnn4CCCCCCCCNc4cccc5c4C(=O)N(C4CCC(=O)NC4=O)C5=O)c3)ccc2[nH]1` (stereo partly shown) [Compound 1] gave an EC50 [1] of 1100 to 4100 nM, an Apoptosis (Molm-13 cells [2]; 0.5 μM) of no more than 5% and an Apoptosis (Molm-13 cells [2]; 1 µM) of 22.7%. The Apoptosis (Molm-13 cells [2]; 3 µM) was 67.6%, the Body weight [3] was “did not cause significant weight losses” and the “Hematopoiesis and overt toxicities” value [3] was “did not inhibit normal hematopoiesis or cause other overt toxicities”. The “Blood cell counts versus control” value ([3]; blood test on day-14, 30 mg/kg/day) was “no significant changes; also recorded: no significant differences”, the “Degradation of WT and mutant ENLs” value (mutant ENL (mENL); 0.2 μg of the plasmid, 500 nM, 24 h) was “reduced efficiency” and the “Degradation of WT and mutant ENLs” value (mutant ENL (mENL); 1 μg of the plasmid) was “ineffective”. The Dmax (mutant ENL (mENL); HEK-293T, 0.1 μg of the plasmid, ~ 500 nM, 24 h) was roughly 95%, the “Overexpression of HoxA11 and HoxA13” value (HoxA11 and HoxA13) was “significantly inhibited overexpression” and the EC50 (MV4;11 cells) was 570 nM. For the same compound, the EC50 (Molm-13 cells [4]; Homo sapiens, MOLM-13, 168 h, read-out: EC50 against proliferation of Molm-13 cells) was 320 nM, the “Time-dependent activity against cell proliferation” value (Molm-13 cells [4]; Molm-13 cells) was “did not inhibit cell proliferation during the first 4 days” and the “ENL level in the cytoplasmic extract” value (ENL [5]) was “significantly reduced”. For the same compound, the “ENL level in the nucleus” value (ENL [5]; compound 1 at 500 nM) was “almost depleted”, the “Time at which significant ENL degradation can be detected” value (ENL [6]) was 2 h and the “Time to ENL depletion” value (ENL [6]) was no more than 24 h. It also gave an IC50 (AF9 YEATS) of 750 ± 15 nM.
